Measurements taken from paper PMC10914731, “Homo-BacPROTAC-induced degradation of ClpC1 as a strategy against drug-resistant mycobacteria” (Nature Communications, 2024).
≈ marks a conversion by molar mass, not a printed value. Where “and” joins values, the source holds several entries; their conditions need not be identical. Equal values may be shown once. Read-outs that look alike come from different tables or passages of the source.

Columns and labels:
[1] = tested on: M. tuberculosis H37Rv (ATCC 27294); assay: microbe, parasite or virus in culture; assay type: cell-based
Mycobacterium fortuitum = assay: microbe, parasite or virus in culture; assay type: cell-based
[2] = tested on: Mycobacterium intracellulare; assay: microbe, parasite or virus in culture; assay type: cell-based
Msm 607 = assay: microbe, parasite or virus in culture; assay type: cell-based
Enterococcus faecium = assay: MIC ESKAPES panel, Enterococcus faecium; assay type: cell-based; conditions: Enterococcus faecium
Experimental: (§1) Minimum inhibitory concentration (MIC) against ESKAPES panel of Gram positive and Gram negative pathogens (Enterococcus faecium, Staphylococcus aureus, Klebsiella pneumoniae, Acinetobacter baumannii, Pseudomonas aeruginosa, Enterobacter cloacae and Salmonella typhimurium [ESKAPES panel]) were determined at the FNDR by the standard broth dilution method [CLSI, M100]. […] Mueller Hinton broth (MHB) medium was used to grow ESKAPES panel strains. The individual cultures were added as 200 μL (inoculum of 3–7 × 10^5 cfu/ml) to the respective assay plates in each well to all columns, except the media control (200 μL of medium). […] The assay plates were incubated at 37 °C, and the results were noted on the 2nd day as turbidometric readout. The clear wells indicated inhibition of growth, while the turbid wells indicated uninhibited growth.

Mtb # 11291 = assay: microbe, parasite or virus in culture; assay type: cell-based; conditions: for MIC: read-out: MIC Mtb # 11291
Mtb ATCC 35825 = assay: microbe, parasite or virus in culture; assay type: cell-based
Mtb H37Rv = assay: Minimum bactericidal concentration (MBC), Mtb H37Rv; assay type: cell-based, Mycobacterium tuberculosis; conditions: Mycobacterium tuberculosis, H37RV
Msm #607 = assay: Minimum bactericidal concentration (MBC), Msm #607; assay type: cell-based, Mycobacterium smegmatis; conditions: Mycolicibacterium smegmatis
Staphylococcus aureus = assay: MIC ESKAPES panel, Staphylococcus aureus; assay type: cell-based; conditions: Staphylococcus aureus
Experimental: as §1

Klebsiella pneumoniae = assay: MIC ESKAPES panel, Klebsiella pneumoniae; assay type: cell-based; conditions: Klebsiella pneumoniae
Experimental: as §1

Mycobacterium avium = assay: microbe, parasite or virus in culture; assay type: cell-based
[3] = molecular target: His6-tagged ClpC1-NTD substrate, M. smegmatis ClpC1P1P2 (UniProt A0R574+P9WPC9); assay: biochemical; assay type: biochemical; conditions: Msm
[4] = assay type: in vitro ADME, Mice
In short: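 Compound at 1 µmol/l incubated with 0.5 mg/ml liver microsomes in 100 mM Tris-HCl pH 7.5, 6.5 mM MgCl2, 1 mM NADPH, 37 °C; acetonitrile-quenched at multiple time points, measured by HPLC-MS/MS. First-order half-lives converted to clearance as %Qh via well-stirred liver model.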

[5] = molecular target: ClpC1-NTD substrate, M. tuberculosis ClpC1P1P2 (Mycobacterium tuberculosis, UniProt P9WPC9); assay: biochemical; assay type: biochemical; conditions: Mtb
[6] = Experiment 2, three replicate columns
[7] = Gram positive, n = 3 well replicates
[8] = Gram-Positive Bacteria, replicates 1-3
[9] = mean of the measurements, read-out: 1-Dmax, Mean
[10] = mean of the measurements, read-out: DC50, Mean

COc1c(N2C[C@@H]3CCCN[C@@H]3C2)c(F)cc2c(=O)c(C(=O)O)cn(C3CC3)c12 [Moxifloxacin, reference compound]
MIC ([1]; M. tuberculosis H37Rv 27294, single well replicates, read-out: MIC): 0.16 µM (≈ 0.0642 µg/mL)
MIC ([1]; Mycobacterium tuberculosis, M. tuberculosis H37Rv 27294, single well replicates, read-out: MIC): 0.16 µM (≈ 0.0642 µg/mL)
MIC ([1]; Mycobacterium tuberculosis, Mtb H37Rv, mean ± SD, n = 3 well replicates, read-out: MIC): 0.2 µM (≈ 0.0803 µg/mL)
MIC ([1]; Mycobacterium tuberculosis, Set 1, read-out: MIC (Mtb H37Rv) Set 1): 0.07 µM and 0.03 µg/mL
MIC ([1]; Mycobacterium tuberculosis, Set 2, read-out: MIC (Mtb H37Rv) Set 2): 0.15 µM and 0.06 µg/mL
MIC ([1]; Mycobacterium tuberculosis, Set 3, done at a different day than Set 1 and Set 2, read-out: MIC (Mtb H37Rv) Set 3): 0.07 µM and 0.03 µg/mL
MIC ([1]; Mycobacterium tuberculosis, individual example (Supplementary Table 11), read-out: MIC Mtb H37Rv): 0.1 µM and 0.03 µg/mL
MIC ([1]; Mycobacterium tuberculosis, mean of 3 experiments +/- SD, unit taken from the sets above in the same table, read-out: MIC data (Mtb H37Rv) (+/- SD)): 0.1 µM and 0.04 µg/mL
MIC (µg/ml) Mycobacterium fortuitum (Mycobacterium fortuitum; [6]): 0.06 µg/mL (≈ 0.149 µM)
MIC (Mycobacterium fortuitum; Experiment 2, three replicate columns, read-out: MIC (µM) Mycobacterium fortuitum): 0.15 µM
MIC (Mycobacterium fortuitum; Mycolicibacterium fortuitum, Experiment 1, read-out: MIC Mycobacterium fortuitum): 0.0747 µM and 0.03 µg/mL
MIC (Mycobacterium fortuitum; Mycolicibacterium fortuitum, Experiment 2, three replicate columns, read-out: MIC (µM) Mycobacterium fortuitum): 0.15 µM
MIC (Mycobacterium fortuitum; Mycolicibacterium fortuitum, Experiment 2, three replicate columns, read-out: MIC (µg/ml) Mycobacterium fortuitum): 0.06 µg/mL
MIC (Mycobacterium fortuitum; Mycolicibacterium fortuitum, mean ± SD, read-out: MIC Mycobacterium fortuitum): 0.1 µM
MIC (µg/ml) Mycobacterium intracellulare [2, 6]: 0.50 µg/mL (≈ 1.25 µM)
MIC ([2]; Experiment 2, three replicate columns, read-out: MIC (µM) Mycobacterium intracellulare): 1.25 µM
MIC ([2]; Mycobacterium intracellulare, Experiment 1, read-out: MIC Mycobacterium intracellulare): 1.25 µM and 0.5 µg/mL
MIC ([2]; Mycobacterium intracellulare, Experiment 2, three replicate columns, read-out: MIC (µM) Mycobacterium intracellulare): 1.25 µM
MIC ([2]; Mycobacterium intracellulare, Experiment 2, three replicate columns, read-out: MIC (µg/ml) Mycobacterium intracellulare): 0.5 µg/mL
MIC ([2]; Mycobacterium intracellulare, mean ± SD, read-out: MIC Mycobacterium intracellulare): 1.2 µM
MIC (Msm 607; Mycolicibacterium smegmatis, 607, read-out: MIC Msm #607, individual example (Supplementary Table 11)): 0.1 µM and 0.1 µg/mL
MIC (Msm 607; Mycolicibacterium smegmatis, ATCC607, Set-3, done at a different day than Set 1 and Set 2, read-out: MIC (Msm ATCC607) Set-3): 0.15 µM and 0.06 µg/mL
MIC (Msm 607; Mycolicibacterium smegmatis, ATCC607, mean of 3 experiments ± SD, read-out: MIC including standard deviations (Msm ATCC607)): 0.015 µM and 0.06 µg/mL
MIC (Msm 607; Mycolicibacterium smegmatis, ATCC607, read-out: MIC (Msm ATCC607) Set-1): 0.15 µM and 0.06 µg/mL
MIC (Msm 607; Mycolicibacterium smegmatis, ATCC607, read-out: MIC (Msm ATCC607) Set-2): 0.15 µM and 0.06 µg/mL
MIC (Enterococcus faecium; [7]): 79.7 µM (≈ 32 µg/mL)
MIC (Enterococcus faecium; [8]): 79.7 µM and 32 µg/mL
MIC (Mtb # 11291; Mycobacterium tuberculosis, mean, n = 2 well replicates): 0.2 µM (≈ 0.0803 µg/mL)
MIC (Mtb # 11291; Mycobacterium tuberculosis, single well replicates): 0.24 µM (≈ 0.0963 µg/mL)
MIC Mtb # 11291 (Mtb # 11291; single well replicates): 0.10 µg/mL (≈ 0.249 µM)
MIC (Mtb # 11291; single well replicates): 0.24 µM (≈ 0.0963 µg/mL)
MIC (Mtb ATCC 35825; Mycobacterium tuberculosis, ATCC35825, mean, n = 2 well replicates): 0.1 µM and 0.1 µg/mL
MIC (Mtb ATCC 35825; Mycobacterium tuberculosis, ATCC35825, single well replicates): 0.06 µg/mL and 0.15 µM
MIC (Mtb ATCC 35825; single well replicates): 0.15 µM (≈ 0.0602 µg/mL)
MIC Mtb ATCC 35825 (Mtb ATCC 35825; single well replicates): 0.06 µg/mL (≈ 0.149 µM)
MBC (Mtb H37Rv; individual example, read-out: MBC Mtb H37Rv): 0.3 µM and 0.1 µg/mL
MBC (Mtb H37Rv; read-out: MBC (from Set 3) Mtb H37Rv): 0.13 µg/mL and 0.31 µM
MBC (Msm #607; ATCC607, read-out: MBC (from Set 3) Msm ATCC 607): 0.13 µg/mL and 0.31 µM
MBC (Msm #607; read-out: MBC Msm #607, individual example): 0.3 µM and 0.1 µg/mL
MIC (Staphylococcus aureus; [7]): 0.3 µM (≈ 0.12 µg/mL)
MIC (Staphylococcus aureus; [8]): 0.31 µM and 0.125 µg/mL
MIC (Klebsiella pneumoniae; Gram negative, n = 3 well replicates): 1.3 µM (≈ 0.522 µg/mL)
MIC (Klebsiella pneumoniae; Gram-Negative Bacteria, replicates 1-3): 1.25 µM and 0.5 µg/mL
MIC (µg/ml) Mycobacterium avium (Mycobacterium avium; [6]): 1 µg/mL (≈ 2.49 µM)
MIC (Mycobacterium avium; Experiment 2, three replicate columns, read-out: MIC (µM) Mycobacterium avium): 2.49 µM
MIC (Mycobacterium avium; Mycobacterium avium, Experiment 1, read-out: MIC Mycobacterium avium): 2.49 µM and 1 µg/mL
MIC (Mycobacterium avium; Mycobacterium avium, Experiment 2, three replicate columns, read-out: MIC (µM) Mycobacterium avium): 2.49 µM
MIC (Mycobacterium avium; Mycobacterium avium, Experiment 2, three replicate columns, read-out: MIC (µg/ml) Mycobacterium avium): 1 µg/mL
MIC (Mycobacterium avium; Mycobacterium avium, mean ± SD, read-out: MIC Mycobacterium avium): 2.5 µM

CO[C@H](c1ccccc1)[C@@H]1NC(=O)[C@H](C)NC(=O)[C@H](C[C@@H](C)CO)N(C)C(=O)[C@H](Cc2cn(Cc3cn(CCOCCn4cc(Cn5cc(C[C@@H]6NC(=O)[C@H](C(C)C)NC(=O)[C@H](CC(C)C)N(C)C(=O)[C@H](C(C)C)NC(=O)[C@H]([C@H](OC)c7ccccc7)NC(=O)[C@H](C)NC(=O)[C@H](C[C@@H](C)CO)N(C)C6=O)c6ccccc65)nn4)nn3)c3ccccc23)NC(=O)[C@H](C(C)C)NC(=O)[C@H](CC(C)C)N(C)C(=O)[C@H](C(C)C)NC1=O [Compound 6]
MIC ([1]; Mycobacterium tuberculosis, M. tuberculosis H37Rv strain, read-out: MIC Mtb H37Rv Mean ± SD): 0.4 ± 0.3 µM (≈ 0.815 µg/mL)
MIC ([1]; Mycobacterium tuberculosis, Mtb H37Rv (Supplementary Table 2), read-out: MIC Mtb): 0.4 ± 0.3 µM (≈ 0.815 µg/mL)
MIC ([1]; individual measurements (source data), read-out: Mtb MIC): 0.390 µM and 0.780 µM and 0.097 µM and 0.195 µM
1-Dmax, single measurements ([3]; Measurement 1-6): 73.6% and 67.7% and 87.3%
1-Dmax (percent substrate remaining at maximal degradation) ([3]; Measurement 1-6, read-out: 1-Dmax, single measurements): 83.7%
1-Dmax (percent substrate remaining at maximal degradation) [3, 9]: 78%
DC50 [3, 10]: 7.5 µM
MIC (Msm 607; Mycolicibacterium smegmatis, 607, read-out: MIC Msm 607): 2.3 ± 0.9 µM (≈ 4.69 µg/mL)
Microsomal Stability Mouse QH ([4]; Mouse): 42.900%
Microsomal Stability Mice ([4]; clearance in microsomes): 43 %Qh
1-Dmax, single measurements ([5]; Measurement 1-4): 67.3% and 57.3% and 45.9% and 46.4%
1-Dmax (percent substrate remaining at maximal degradation) [5, 9]: 54%
DC50 [5, 10]: 5.8 µM
